According to US9572820B2, “Methods of treating autophagy-associated disorders and related pharmaceutical compositions, diagnostics, screening techniques and kits” (priority 2011, dated 2017):
Non-standard residues stand in square brackets, D forms with d. Residues, ends and D or L forms follow the SMILES beside them. Nle = CCCC[C@H](N)C(=O)O

Columns and labels:
LC3-GFP/RFP HeLa cells [1] = experiment: High-content imaging screen of LC3-GFP/RFP puncta (Cellomics ArrayScan); assay type: cell-based; details: for modulation of autophagy (agonist/inducer or antagonist/inhibitor): LC3-GFP/RFP puncta per cell, 4 hours incubation, hit = 3 standard deviations above or below mean of negative control wells
Procedure: FIG. 1X6. Use of Cellomics ArrayScan to detect induction of authophagy. […] Wells were scanned for number, area, or intensity of GFP+ or RFP+ puncta per cell using a Cellomics ArrayScan. Negative control (DMF-treated) wells were also measured. Each dot represents the data from a single well.
FIG. 2X6. Chemical library screen for modulation of autophagy. LC3-RFP/GFP HeLa cells were incubated with compounds from the chemical library for 4 hours, then fixed in 0.1% PFA. Wells were scanned using a Cellomics ArrayScan. […] Each dot represents the data from a single well.
FIG. 4X6. […] Wells were scanned using a Cellomics ArrayScan. […] Each dot represents the data from four separate wells, and error bars are standard deviation.
LC3 is a widely-used marker for autophagic vacuoles. HeLa cells stably transduced with LC3-GFP/RFP tandem construct generate fluorescent autophagic puncta, which are either green/yellow (early autophagosomes) or red (late autophagosomes fused with lysosomes, which degrades the GFP). By quantitating the number or total area of fluorescent puncta per cell, we can detect alterations in autophagic flux and regulation. […]
Using the above system, we performed two separate screens on a chemical library. This library contains 1,200 FDA-approved compounds, and represents wide functional and chemical diversity. This library spans four 384-well plates, with 64 wells on each plate with DMSO only as negative controls. […] A hit was defined as 3 standard deviations above or below the mean of the negative control wells on a given plate.

LC3-GFP/RFP HeLa cells [2] = experiment: Chemical library screen in the presence of a suboptimal dose of pp242; assay type: cell-based; details: suboptimal pp242 (~0.06 uM) plus library compound
IL-1β = IL-1β secretion from LPS-pretreated BMMs (ELISA); assay type: cell-based, murine; details: 1 h
Procedure: FIG. 1X3. induction of autophagy enhances IL-1β secretion. (A) Atg5fl/fl Cre^− and Atg^5fl/fl Cre^+ bone marrow-derived macrophages (BMMs), pretreated overnight with 100 ng/ml LPS, were stimulated for 1 h with the inflammasome agonist nigericin ([…]) with (Starvation; EBSS) or without (Full; full medium) autophagic induction. Cell culture supernatants were assayed for murine IL-1β by ELISA. Data represent mean values±s.d. (nX3); *Po0.05. (B) LPS-pretreated Atg5fl/fl Cre^− and Atg^5fl/fl Cre^+ BMMs were stimulated with […] nigericin for 1 h in OptiMEM and the release of active caspase-1 and IL-1β was determined by immunoblotting. (C) As in (A), assayed for IL-18. Data represent mean values±s.d. (nX3); *Po0.05. (D) LPS-pretreated BMMs were exposed to alum ([…]) for 1 h with or without autophagic induction by starvation. Secreted IL-1β was measured as in (A). Data represent mean values±s.d. (nX3); *Po0.05. (E) LPS-pretreated BMMs were exposed to silica ([…]) for 1 h with or without autophagic induction by starvation. Secreted IL-1β was measured as in (A). Data represent mean values±s.d. (nX3); *Po0.05. (F) BMMs were transfected with scramble (Scr) control siRNA or siRNAs against ASC and NLRP3. After 48 h following transfection, cells were treated overnight with LPS and subjected to nigericin ([…]) and starvation for 1 h. Data represent mean values±s.d. (nX3); *Po0.05. (G) Immunoblot analysis of ASC and NLRP3 knockdowns. (H) BMMs were transfected with scramble
FIG. 2X3 Autophagic pathway progression promotes secretion of inflammasome substrates. (A, B) LPS-pretreated BMMs were treated with […] nigericin (Nig) and 100 nM bafilomycin A1 (Baf) with (Starvation) or without (Full) autophagic induction for 1 h and secreted IL-1β (A) and IL-18 (B) were measured. Data represent mean values+s.d. (nX3); *Po0.05. (C) LPS-pretreated BMMs were treated with […] of silica and 100 nM bafilomycin A1 (Baf) with (Starvation) or without (Full) autophagic induction for 1 h and secreted IL-1β were measured. Data represent mean values±s.d. (nX3); *Po0.05. (D) Colocalization of cathepsin B with the basal autophagic machinery factor LC3 and IL-1b. Fluorescence; LC3 (green, Alexa488), IL-1β (red, Alexa568), and cathepsin B (blue, Alexa633). BMMs from GFP-LC3 knockin mice were treated with LPS and then analysed for immunofluorescence. (E) Colocalization line tracing analysis from images in (D). (F) LPS-pretreated BMMs were treated with […] nigericin and cathepsin B inhibitor CA-074 Me […] , with (Starvation) or without (Full) autophagic induction, for 1 h and secreted IL-1β was measured. […] (G) LPS-pretreated Atg^5fl/fl Cr^+ and Atg^5fl/fl Cre^− BMMs were stimulated with […] nigericin for 1 h in OptiMEM and release of cathepsin B was determined by immunoblotting. […]

IL-1α = IL-1α release (ELISA) from LPS+IFN-γ stimulated BMM; assay type: cell-based, murine
pro-IL-1β = experiment: Expression of pro-IL-1β in BMMs; assay type: cell-based, murine; details: cells treated with bafilomycin A1 or CA-074 Me
Procedure: To induce pro-IL-1β expression, cells were pretreated overnight with 100 ng/ml LPS (Sigma). Inflammasome was induced with […] nigericin (Sigma) for 1 h or with […] Alum (Thermoscientific) for 1 h or with […] silica crystals (MIN-U-SIL-15, US Silica) for 1 h or with […] Amyloid-b peptide (Ab; American Peptide Company) fibrils prepared as described (Moore et al, 2002). […] Starvation and other treatments (except for macrophage priming with LPS done in advance) were carried out concurrently (i.e., initiated at the same time).
For all conditions, cell-free supernatants were assayed by immunoblotting after TCA precipitation for mouse IL-1β p17 (R&D), caspase-1 p10 (Santa Cruz Biotechnology), HMGB1 (Abcam) and Cathepsin B (R&D) or by ELISA for mouse IL-1β (R&D), IL-18 (MBL), and HMGB1 (IBL). Immunofluorescence confocal microscopy was carried out using a Zeiss LSM 510 Meta microscope (laser wavelengths 488, 543, and 633 nm). Antibodies against endogenous proteins IL-1β (Abcam), Sec6 (Shu C Hsu, Rutgers University, NJ, USA), Cathepsin B (R&D), Rab8a (Abcam), GORASP1 (Novus), GORASP2 (ProteinTech Group), GM130 (BD), LC3 (MBL) and GFP (Abcam; for BMMs from GFP-LC3 knock-in transgenic mice) were used for indirect immunofluorescence analysis. […]

naïve CD4 T cells = experiment: In vitro Th17 polarization of naïve CD4 T cells (intracellular IL-17A, flow cytometry); assay type: cell-based, mice; details: with TGF-β 5 ng/ml and IL-6 20 ng/ml; IL-1α or IL-1β 20 ng/ml, day 4

## CNCCC=C1c2ccccc2C=Cc2ccccc21 [norcyclobenzaprine]
LC3-GFP/RFP HeLa cells [1]
  modulation of autophagy (agonist/inducer or antagonist/inhibitor): agonists or inducers of autophagy

## CC12CC3CC(C)(C1)CC(N)(C3)C2 [memantine]
LC3-GFP/RFP HeLa cells [1]
  modulation of autophagy (agonist/inducer or antagonist/inhibitor): agonists or inducers of autophagy

## C[C@H]1O[C@@H](O[C@H]2[C@@H](O)C[C@H](O[C@H]3[C@@H](O)C[C@H](O[C@H]4CC[C@@]5(C)[C@H](CC[C@@H]6[C@@H]5C[C@@H](O)[C@]5(C)[C@@H](C7=CC(=O)OC7)CC[C@]65O)C4)O[C@@H]3C)O[C@@H]2C)C[C@H](O)[C@@H]1O [digoxin]
LC3-GFP/RFP HeLa cells [2]
  modulation of autophagy in combination with mTOR inhibitor (suboptimal pp242): effective as autophagy modulators in combination

## N#Cc1c(Cl)c(Cl)c(Cl)c(C#N)c1Cl [tetrachlorisophthalonitrile]
LC3-GFP/RFP HeLa cells [1]
  modulation of autophagy (agonist/inducer or antagonist/inhibitor): antagonists or inhibitors of autophagy

## CCCCC(CC)CN1CN(CC(CC)CCCC)CC(C)(N)C1 (stereo not drawn) [hexetidine]
LC3-GFP/RFP HeLa cells [2]
  modulation of autophagy in combination with mTOR inhibitor (suboptimal pp242): effective as autophagy modulators in combination

## CC(=O)[O-].[Hg+][c]1ccccc1 [phenylmercuric acetate]
LC3-GFP/RFP HeLa cells [1]
  modulation of autophagy (agonist/inducer or antagonist/inhibitor): antagonists or inhibitors of autophagy

## O=C1NCCN1CCN1CCC(c2cn(-c3ccc(F)cc3)c3ccc(Cl)cc23)CC1 [sertindole]
LC3-GFP/RFP HeLa cells [2]
  modulation of autophagy in combination with mTOR inhibitor (suboptimal pp242): effective as autophagy modulators in combination

## CNCCC=C1c2ccccc2CCc2ccccc21 [nortriptyline]
LC3-GFP/RFP HeLa cells [1]
  modulation of autophagy (agonist/inducer or antagonist/inhibitor): agonists or inducers of autophagy

## CCN(CC)CCOc1ccc(C(=C(Cl)c2ccccc2)c2ccccc2)cc1.O=C(O)CC(O)(CC(=O)O)C(=O)O [clomiphene citrate (Z,E)]
LC3-GFP/RFP HeLa cells [1]
  modulation of autophagy (agonist/inducer or antagonist/inhibitor): agonists or inducers of autophagy

## O=C(Nc1ccccc1)OCC(CN1CCCCC1)OC(=O)Nc1ccccc1 (stereo not drawn) [diperodon]
LC3-GFP/RFP HeLa cells [1]
  modulation of autophagy (agonist/inducer or antagonist/inhibitor): agonists or inducers of autophagy

## CC[N+](C)(CC)CCC[n+]1c(-c2ccccc2)c2cc(N)ccc2c2ccc(N)cc21.[I-].[I-] [propidium iodide]
LC3-GFP/RFP HeLa cells [1]
  modulation of autophagy (agonist/inducer or antagonist/inhibitor): agonists or inducers of autophagy

## CC(C)COCC(CN(Cc1ccccc1)c1ccccc1)N1CCCC1 (stereo not drawn) [bepridil]
LC3-GFP/RFP HeLa cells [1]
  modulation of autophagy (agonist/inducer or antagonist/inhibitor): agonists or inducers of autophagy

## CC(C)n1nc(-c2cc3cc(O)ccc3[nH]2)c2c(N)ncnc21 [pp242]
LC3-GFP/RFP HeLa cells [1]; from pp242 dose response
  suboptimal dose that did not induce autophagy: ~0.06 µM
IL-1β; pp242 in full medium
  secretion of IL-1β: increased secretion of IL-1β

## CNCC(O)c1ccc(OC(=O)C(C)(C)C)c(OC(=O)C(C)(C)C)c1 (stereo not drawn) [dipivefrin]
LC3-GFP/RFP HeLa cells [1]
  modulation of autophagy (agonist/inducer or antagonist/inhibitor): agonists or inducers of autophagy

## Cn1cnc(N)c2ncnc1-2 [3-methyladenine]
IL-1α; Atg5fl/fl LysM-Cre− BMM, LPS+IFN-γ, 12 h, 50 μg/ml rapamycin, 10 mM 3-MA or 100 nM Bafilomycin A1
  IL-1α secreted: significantly increased

## CCCNC(=O)[C@H]1O[C@@H]1C(=O)N[C@H](C(=O)N1CCC[C@H]1C(=O)OC)[C@@H](C)CC [CA-074 Me]
IL-1β; starvation, nigericin
  IL-1β secretion: strongly inhibited IL-1β secretion
pro-IL-1β
  expression of pro-IL-1β: No differences

## CN(Cc1cc(Br)cc(Br)c1N)C1CCCCC1 [bromhexine]
LC3-GFP/RFP HeLa cells [1]
  modulation of autophagy (agonist/inducer or antagonist/inhibitor): agonists or inducers of autophagy

## CCCCc1cc2ccccc2c(OCCN(C)C)n1 [dimethisoquin]
LC3-GFP/RFP HeLa cells [1]
  modulation of autophagy (agonist/inducer or antagonist/inhibitor): agonists or inducers of autophagy

## Oc1c(Cl)cc(Cl)c(Cl)c1Cc1c(O)c(Cl)cc(Cl)c1Cl [hexachlorophene]
LC3-GFP/RFP HeLa cells [1]
  modulation of autophagy (agonist/inducer or antagonist/inhibitor): agonists or inducers of autophagy

## CCCC[C@@H](C=O)NC(=O)[C@H](CC(C)C)NC(=O)[C@H](CC(C)C)NC(C)=O [ALLN] (Ac-Leu-Leu-[Nle]-aldehyde)
IL-1α; Atg5fl/fl LysM-Cre+ BMM, ALLN 100 μM
  excess IL-1α production: completely abrogated

## CN1CCCC(CC2c3ccccc3Sc3ccccc32)C1 (stereo not drawn) [metixene]
LC3-GFP/RFP HeLa cells [1]
  modulation of autophagy (agonist/inducer or antagonist/inhibitor): agonists or inducers of autophagy

## COCCCC/C(=N\OCCN)c1ccc(C(F)(F)F)cc1 [fluvoxamine]
LC3-GFP/RFP HeLa cells [1]
  modulation of autophagy (agonist/inducer or antagonist/inhibitor): agonists or inducers of autophagy

## Cc1cccc(C)c1N=C1NCCCS1 [xylazine]
LC3-GFP/RFP HeLa cells [2]
  modulation of autophagy in combination with mTOR inhibitor (suboptimal pp242): effective as autophagy modulators in combination

## COC(=O)Nc1nc2cc(C(=O)c3ccc(F)cc3)ccc2[nH]1 [flubendazole]
LC3-GFP/RFP HeLa cells [1]
  modulation of autophagy (agonist/inducer or antagonist/inhibitor): agonists or inducers of autophagy

B1: IL-1α: cytokine used at 20 ng/ml to promote Th17 differentiation (protein, UniProt P01583 113-271, looked up)
Interleukin-1 alpha: SAPFSFLSNVKYNFMRIIKYEFILNDALNQSIIRANDQYLTAAALHNLDEAVKFDMGAYKSSKDDAKITVILRISKTQLYVTAQDEDQPVLLKEMPEIPKTITGSETNLLFFWETHGTKNYFTSVAHPNLFIATKQDYWVCLAGGPPSITDFQILENQA
naïve CD4 T cells
  intracellular levels of IL-17A: elevated
